# Results as given in ChEMBL document CHEMBL1201862, “PubChem BioAssay data set” (2004).
# Active and inactive are the calls of the source.
# Tests used:
# [1] = Vero cell cytotoxicity, dose response, cytotoxicity control for Vif-APOBEC3G degradation inhibitor project, Vero cells (AID 1117358); assay type: functional; settings: Human immunodeficiency virus 1, Vero
# [2] = inhibitors of Vif binding to APOBEC3G peptide, primary screen, biochemical, TR-FRET, GST-Vif 1-94, biotin-A3G peptide, dose response retest (AID 1117319); assay type: functional;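 note: TR-FRET signal of purified GST-Vif binding a biotinylated A3G peptide; inhibitors lower the FRET signal by blocking Vif and A3G binding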
# [3] = target: Ubiquitin carboxyl-terminal hydrolase BAP1 (Homo sapiens, UniProt Q92560); assay: BAP1 deubiquitinase inhibitors, dose response, biochemical (AID 714); assay type: functional
# [4] = target: Phospholipase D1 (Homo sapiens, UniProt Q13393); assay: PLD1 Cellular Concentration Response Study.; assay type: functional
# [5] = target: Phospholipase D2 (Homo sapiens, UniProt O14939); assay: PLD2 Cellular Concentration Response Study.; assay type: functional
# [6] = target: Sphingosine 1-phosphate receptor 2 (Homo sapiens, UniProt O95136); assay: Dose Response Cell Based Assay for Agonists of the S1P2 Receptor. [Related pubchem assays: 729, 736, 843 ]; assay type: functional
# [7] = target: T1, Mitochondrial peptide methionine sulfoxide reductase (Bos taurus, UniProt P54149); assay: Absorbance-based biochemical high throughput dose response assay for activators of Methionine sulfoxide reductase A (MsrA).; assay type: functional
# T1 sequence (P54149 whole entry): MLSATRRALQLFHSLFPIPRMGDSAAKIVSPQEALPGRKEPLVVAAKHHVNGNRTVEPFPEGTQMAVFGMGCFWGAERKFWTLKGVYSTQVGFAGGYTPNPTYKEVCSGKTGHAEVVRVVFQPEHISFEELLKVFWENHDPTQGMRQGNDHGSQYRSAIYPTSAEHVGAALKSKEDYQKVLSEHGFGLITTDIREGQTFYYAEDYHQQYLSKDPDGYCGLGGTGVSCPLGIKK
# [8] = target: T2, Sentrin-specific protease 8 (Homo sapiens, UniProt Q96LD8); assay type: functional;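 note: luminescence read-out of SENP8 inhibition, dose-response confirmation following an ultra-high-throughput screen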
# T2 sequence (Q96LD8 whole entry): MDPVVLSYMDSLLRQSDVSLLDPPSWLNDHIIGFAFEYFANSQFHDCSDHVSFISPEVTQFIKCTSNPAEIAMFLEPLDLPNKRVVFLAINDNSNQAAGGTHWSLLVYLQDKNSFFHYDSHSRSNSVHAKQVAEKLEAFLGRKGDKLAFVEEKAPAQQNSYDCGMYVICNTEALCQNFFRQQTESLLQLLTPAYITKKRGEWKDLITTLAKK
# [9] = target: Caspase-6 (Homo sapiens, UniProt P55212); assay: human caspase-6 inhibitors, dose response, biochemical, VEID-R110 fluorescence, cherry-pick (AID 720632)
# [10] = target: T3, Caspase-3 (Homo sapiens, UniProt P42574); assay type: functional;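 note: Dose-response selectivity test against caspase-3 for candidate inhibitors of sentrin-specific proteases (SENPs)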
# T3 sequence (P42574 whole entry): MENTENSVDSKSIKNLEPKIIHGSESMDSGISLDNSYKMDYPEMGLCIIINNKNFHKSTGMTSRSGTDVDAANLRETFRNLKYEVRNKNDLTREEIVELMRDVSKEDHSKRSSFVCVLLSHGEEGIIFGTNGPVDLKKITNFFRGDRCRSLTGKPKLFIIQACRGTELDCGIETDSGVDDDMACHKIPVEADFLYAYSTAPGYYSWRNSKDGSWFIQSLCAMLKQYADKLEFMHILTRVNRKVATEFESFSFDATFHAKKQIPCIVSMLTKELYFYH
# [11] = target: T4, Sentrin-specific protease 7 (Homo sapiens, UniProt Q9BQF6); assay type: functional;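 note: Luminescence-based dose-response confirmation of ultra-high-throughput screening hits, measuring inhibition of SENP7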
# T4 sequence (Q9BQF6 whole entry): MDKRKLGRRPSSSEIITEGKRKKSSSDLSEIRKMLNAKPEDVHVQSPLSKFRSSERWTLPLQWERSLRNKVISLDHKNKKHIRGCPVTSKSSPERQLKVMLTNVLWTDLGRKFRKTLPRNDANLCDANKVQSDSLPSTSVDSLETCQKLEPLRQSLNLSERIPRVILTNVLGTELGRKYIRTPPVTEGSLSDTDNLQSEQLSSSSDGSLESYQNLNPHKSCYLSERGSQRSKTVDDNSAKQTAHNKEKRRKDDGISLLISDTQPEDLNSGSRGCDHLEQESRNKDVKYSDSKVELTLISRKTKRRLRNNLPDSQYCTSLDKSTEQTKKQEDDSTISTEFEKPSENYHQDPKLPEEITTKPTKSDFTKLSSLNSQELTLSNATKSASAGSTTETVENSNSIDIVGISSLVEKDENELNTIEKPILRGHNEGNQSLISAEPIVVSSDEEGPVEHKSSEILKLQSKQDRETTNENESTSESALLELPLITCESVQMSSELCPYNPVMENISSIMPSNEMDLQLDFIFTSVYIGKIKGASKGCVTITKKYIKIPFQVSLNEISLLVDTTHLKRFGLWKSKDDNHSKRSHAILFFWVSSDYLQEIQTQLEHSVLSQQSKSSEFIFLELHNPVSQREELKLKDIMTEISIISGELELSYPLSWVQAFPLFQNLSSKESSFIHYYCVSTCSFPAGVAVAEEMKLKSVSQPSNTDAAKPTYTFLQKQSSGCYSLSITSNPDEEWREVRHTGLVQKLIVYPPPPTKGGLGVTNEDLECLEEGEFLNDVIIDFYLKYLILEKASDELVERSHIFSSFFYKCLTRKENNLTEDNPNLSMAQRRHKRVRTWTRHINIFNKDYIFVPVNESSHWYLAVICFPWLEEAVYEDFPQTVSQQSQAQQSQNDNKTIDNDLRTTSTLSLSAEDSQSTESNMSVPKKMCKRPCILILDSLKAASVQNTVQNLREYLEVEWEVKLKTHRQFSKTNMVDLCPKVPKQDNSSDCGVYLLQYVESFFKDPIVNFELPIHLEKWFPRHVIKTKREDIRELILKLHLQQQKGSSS
# [12] = target: Caspase-8 (Homo sapiens, UniProt Q14790); assay: caspase-8 inhibition counter-screen, dose response, selectivity assay for caspase-6 inhibitor project, biochemical, Z-IETD-R110 fluorescence, cherry-picked samples (AID 743294)
# [13] = target: Caspase-7 (Homo sapiens, UniProt P55210); assay: human caspase-7 inhibitors, dose response, selectivity assay for caspase-6 inhibitor project, biochemical, DEVD-R110 fluorescence, cherry-pick (AID 743295)
# [14] = target: T5, Sentrin-specific protease 6 (Homo sapiens, UniProt Q9GZR1); assay type: functional;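 note: Luminescence-based dose-response confirmatory assay of SENP6 inhibition, following up an ultra-high-throughput screen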
# T5 sequence (Q9GZR1 whole entry): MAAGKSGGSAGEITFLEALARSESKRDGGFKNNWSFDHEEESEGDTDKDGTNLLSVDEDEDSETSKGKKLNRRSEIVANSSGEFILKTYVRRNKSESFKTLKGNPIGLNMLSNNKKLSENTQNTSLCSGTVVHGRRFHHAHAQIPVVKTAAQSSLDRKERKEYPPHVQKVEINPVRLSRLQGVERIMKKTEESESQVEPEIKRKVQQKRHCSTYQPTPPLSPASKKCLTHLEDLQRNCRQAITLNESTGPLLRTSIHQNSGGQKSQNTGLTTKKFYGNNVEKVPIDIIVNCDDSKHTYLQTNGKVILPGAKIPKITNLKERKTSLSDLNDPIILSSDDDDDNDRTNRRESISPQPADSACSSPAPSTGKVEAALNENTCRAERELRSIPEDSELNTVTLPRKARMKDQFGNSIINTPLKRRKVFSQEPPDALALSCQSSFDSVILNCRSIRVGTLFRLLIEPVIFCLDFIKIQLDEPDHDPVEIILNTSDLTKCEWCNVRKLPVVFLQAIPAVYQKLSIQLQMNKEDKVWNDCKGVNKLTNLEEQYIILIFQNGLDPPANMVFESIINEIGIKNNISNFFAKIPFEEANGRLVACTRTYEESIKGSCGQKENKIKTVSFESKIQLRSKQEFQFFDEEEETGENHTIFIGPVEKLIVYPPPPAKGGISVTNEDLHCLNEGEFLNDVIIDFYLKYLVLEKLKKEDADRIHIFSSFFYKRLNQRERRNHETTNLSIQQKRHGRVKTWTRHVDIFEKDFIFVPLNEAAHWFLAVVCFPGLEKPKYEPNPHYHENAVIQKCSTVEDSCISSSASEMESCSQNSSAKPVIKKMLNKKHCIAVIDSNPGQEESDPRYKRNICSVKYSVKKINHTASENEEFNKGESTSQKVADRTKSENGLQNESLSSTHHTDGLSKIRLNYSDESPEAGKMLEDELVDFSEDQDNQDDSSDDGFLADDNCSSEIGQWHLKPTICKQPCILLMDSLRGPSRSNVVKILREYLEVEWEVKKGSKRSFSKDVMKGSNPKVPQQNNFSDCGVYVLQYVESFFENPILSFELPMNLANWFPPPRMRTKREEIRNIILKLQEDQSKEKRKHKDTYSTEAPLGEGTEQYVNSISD
# [15] = CTGF mRNA reduction under YAP1 overexpression, dose response, mechanism study for YAP1 pathway inhibitor project, DLD1 cells, RT-qPCR, cherry-pick (AID 1053127); assay type: functional, cell-based; settings: DLD-1
# [16] = P. falciparum Dd2 growth inhibitors, dose response, SYBR Green, dry powder samples (AID 1159566); assay type: functional, cell-based;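 note: potency for growth inhibition with lower SYBR green DNA signal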
# [17] = HepG2 cell cytotoxicity, dose response, cytotoxicity control, plate reader, dry powder samples (AID 1159569); assay type: functional, cell-based;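 note: inhibitor potency with signal falling toward the positive control level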
# [18] = P. falciparum Dd2 growth inhibitors, dose response, SYBR Green, cherry-picked samples (AID 1159567); assay type: functional, cell-based
# [19] = P. falciparum ATP4 D1247Y mutant growth inhibitors, dose response, NITD609-resistant line, SYBR Green, dry powder (AID 1159571); assay type: functional, cell-based;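 note: parasites synchronized at ring stage by sorbitol before testing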
# [20] = P. falciparum 3D7-ScDHODH growth inhibitors, dose response, SYBR Green, dry powder samples (AID 1159570); assay type: functional, cell-based;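 note: parasite growth measured after 72 hours of compound exposure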
# [21] = HEK293 cell cytotoxicity, dose response, cytotoxicity control, ATP luminescence, dry powder, set 3 (AID 743131); assay type: functional, cell-based
# [22] = HepG2 cell cytotoxicity, dose response, cytotoxicity control, ATP luminescence, dry powder, set 2 (AID 743129); assay type: functional, cell-based
# [23] = A549 cell cytotoxicity, dose response, cytotoxicity control, CellTiter-Glo luminescence, dry powder, set 5 (AID 743158); assay type: functional, cell-based
# [24] = HepG2 cell cytotoxicity, dose response, cytotoxicity control, cherry-picked samples (AID 1159577); assay type: functional, cell-based
# [25] = Dose-response inhibition of insulin secretion in a rat insulinoma line at 5 mM glucose (AID 1117331); assay type: functional, cell-based; settings: INS-1E
# [26] = cells; assay type: functional, cell-based; settings: INS-1E
# [27] = target: G-protein coupled receptor 183 (Homo sapiens, UniProt P32249); assay: SAR confirmation of small molecule antagonists of the EBI2 receptor via a luminescent beta-arrestin assa.; assay type: functional
# [28] = target: Metabotropic glutamate receptor 7 (Homo sapiens, UniProt Q14831); assay: mGlu7 positive allosteric modulators, dose response, cell-based, calcium mobilization, Galpha15 (AID 743384); assay type: functional
# [29] = target: Glutathione-S-transferase (Schistosoma japonicum, UniProt Q26513); assay: biotin-GST/anti-GST TR-FRET signal inhibitors, dose response, artefact control for Vif-APOBEC3G degradation inhibitor project, biochemical (AID 1117362); assay type: functional
# [30] = target: T6, Bcl-2-like protein 10 (Homo sapiens, UniProt Q9HD36); assay: displacers of TR3 peptide from Bcl-B, primary screen, selectivity assay for Bfl-1 inhibitor project, biochemical, fluorescence polarization, FITC-TR3 peptide (AID 748);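 note: fluorescence polarization from a fluorescein-labelled TR3 peptide binding purified Bcl-B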
# T6 sequence (Q9HD36 whole entry): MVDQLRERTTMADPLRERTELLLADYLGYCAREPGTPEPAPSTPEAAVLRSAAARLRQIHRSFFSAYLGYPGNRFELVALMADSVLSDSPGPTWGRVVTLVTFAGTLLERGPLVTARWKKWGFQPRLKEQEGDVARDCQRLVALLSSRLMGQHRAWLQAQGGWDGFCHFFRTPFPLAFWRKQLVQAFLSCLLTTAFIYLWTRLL
# Glutathione-S-transferase, sequence (Q26513 whole entry): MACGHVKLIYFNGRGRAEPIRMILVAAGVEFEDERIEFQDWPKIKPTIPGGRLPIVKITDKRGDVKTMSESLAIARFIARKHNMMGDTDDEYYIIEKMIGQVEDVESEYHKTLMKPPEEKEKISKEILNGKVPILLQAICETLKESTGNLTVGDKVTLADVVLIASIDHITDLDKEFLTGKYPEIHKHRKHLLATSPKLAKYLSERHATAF
# Metabotropic glutamate receptor 7, sequence (Q14831 whole entry): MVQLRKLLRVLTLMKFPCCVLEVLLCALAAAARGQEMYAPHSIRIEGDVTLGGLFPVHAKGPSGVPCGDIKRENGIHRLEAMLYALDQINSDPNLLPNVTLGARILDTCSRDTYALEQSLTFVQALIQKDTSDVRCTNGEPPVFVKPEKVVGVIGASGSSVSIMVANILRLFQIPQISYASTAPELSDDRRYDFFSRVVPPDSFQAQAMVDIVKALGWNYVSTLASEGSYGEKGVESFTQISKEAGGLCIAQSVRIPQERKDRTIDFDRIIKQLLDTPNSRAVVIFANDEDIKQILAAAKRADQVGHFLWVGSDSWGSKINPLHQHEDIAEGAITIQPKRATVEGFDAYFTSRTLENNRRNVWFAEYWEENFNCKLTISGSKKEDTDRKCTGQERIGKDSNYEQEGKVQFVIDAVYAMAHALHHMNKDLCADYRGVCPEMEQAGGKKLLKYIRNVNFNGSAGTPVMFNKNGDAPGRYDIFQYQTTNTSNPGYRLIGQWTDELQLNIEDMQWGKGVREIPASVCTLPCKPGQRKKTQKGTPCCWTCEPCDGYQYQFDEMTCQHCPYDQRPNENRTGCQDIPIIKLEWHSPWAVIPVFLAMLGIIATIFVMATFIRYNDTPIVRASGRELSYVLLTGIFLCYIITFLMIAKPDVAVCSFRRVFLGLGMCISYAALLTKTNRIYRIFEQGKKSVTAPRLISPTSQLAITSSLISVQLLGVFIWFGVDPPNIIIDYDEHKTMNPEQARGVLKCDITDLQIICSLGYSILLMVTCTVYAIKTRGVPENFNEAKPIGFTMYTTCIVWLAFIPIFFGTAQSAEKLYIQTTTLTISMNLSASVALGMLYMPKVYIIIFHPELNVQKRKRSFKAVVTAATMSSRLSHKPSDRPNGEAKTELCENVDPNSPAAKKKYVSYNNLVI
# Caspase-6, sequence (P55212 24-179 limits assumed): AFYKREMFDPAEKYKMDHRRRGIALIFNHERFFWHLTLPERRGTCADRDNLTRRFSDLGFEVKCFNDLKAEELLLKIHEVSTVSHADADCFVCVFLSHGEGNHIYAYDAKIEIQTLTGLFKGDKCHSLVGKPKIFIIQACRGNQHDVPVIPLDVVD
# Caspase-6, sequence (P55212 194-293 limits assumed): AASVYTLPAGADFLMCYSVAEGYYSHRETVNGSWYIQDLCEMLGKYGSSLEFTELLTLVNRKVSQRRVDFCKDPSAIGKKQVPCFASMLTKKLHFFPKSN
# Sphingosine 1-phosphate receptor 2, sequence (O95136 whole entry): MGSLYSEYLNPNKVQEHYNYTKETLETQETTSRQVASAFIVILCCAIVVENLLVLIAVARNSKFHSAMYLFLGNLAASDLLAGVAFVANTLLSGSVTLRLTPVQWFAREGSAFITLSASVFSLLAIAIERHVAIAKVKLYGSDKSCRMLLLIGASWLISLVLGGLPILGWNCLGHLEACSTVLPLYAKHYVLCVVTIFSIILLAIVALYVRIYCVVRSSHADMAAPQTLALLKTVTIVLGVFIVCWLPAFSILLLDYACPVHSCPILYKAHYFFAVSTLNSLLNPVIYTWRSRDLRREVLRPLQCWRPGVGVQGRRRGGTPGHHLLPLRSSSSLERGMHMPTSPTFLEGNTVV
# Ubiquitin carboxyl-terminal hydrolase BAP1, sequence (Q92560 whole entry): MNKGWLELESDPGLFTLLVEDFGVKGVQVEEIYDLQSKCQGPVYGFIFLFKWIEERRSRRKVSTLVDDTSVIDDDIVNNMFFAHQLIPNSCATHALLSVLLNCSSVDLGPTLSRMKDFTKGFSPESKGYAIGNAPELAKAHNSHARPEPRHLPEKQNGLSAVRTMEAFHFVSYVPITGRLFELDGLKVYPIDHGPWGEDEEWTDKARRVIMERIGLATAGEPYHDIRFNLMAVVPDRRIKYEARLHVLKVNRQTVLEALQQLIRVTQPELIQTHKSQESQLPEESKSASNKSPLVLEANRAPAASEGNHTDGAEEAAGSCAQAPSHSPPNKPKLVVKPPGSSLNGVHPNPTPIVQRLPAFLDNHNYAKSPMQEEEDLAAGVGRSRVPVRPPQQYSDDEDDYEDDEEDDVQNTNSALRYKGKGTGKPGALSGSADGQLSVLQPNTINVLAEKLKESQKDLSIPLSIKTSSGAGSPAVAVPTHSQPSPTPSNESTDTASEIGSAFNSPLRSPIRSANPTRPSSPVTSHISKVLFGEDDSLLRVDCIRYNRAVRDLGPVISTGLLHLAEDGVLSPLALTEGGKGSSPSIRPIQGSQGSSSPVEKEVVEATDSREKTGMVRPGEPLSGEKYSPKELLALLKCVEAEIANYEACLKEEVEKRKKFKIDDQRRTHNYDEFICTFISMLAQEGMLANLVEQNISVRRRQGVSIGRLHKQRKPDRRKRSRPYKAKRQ
# Phospholipase D2, sequence (O14939 whole entry): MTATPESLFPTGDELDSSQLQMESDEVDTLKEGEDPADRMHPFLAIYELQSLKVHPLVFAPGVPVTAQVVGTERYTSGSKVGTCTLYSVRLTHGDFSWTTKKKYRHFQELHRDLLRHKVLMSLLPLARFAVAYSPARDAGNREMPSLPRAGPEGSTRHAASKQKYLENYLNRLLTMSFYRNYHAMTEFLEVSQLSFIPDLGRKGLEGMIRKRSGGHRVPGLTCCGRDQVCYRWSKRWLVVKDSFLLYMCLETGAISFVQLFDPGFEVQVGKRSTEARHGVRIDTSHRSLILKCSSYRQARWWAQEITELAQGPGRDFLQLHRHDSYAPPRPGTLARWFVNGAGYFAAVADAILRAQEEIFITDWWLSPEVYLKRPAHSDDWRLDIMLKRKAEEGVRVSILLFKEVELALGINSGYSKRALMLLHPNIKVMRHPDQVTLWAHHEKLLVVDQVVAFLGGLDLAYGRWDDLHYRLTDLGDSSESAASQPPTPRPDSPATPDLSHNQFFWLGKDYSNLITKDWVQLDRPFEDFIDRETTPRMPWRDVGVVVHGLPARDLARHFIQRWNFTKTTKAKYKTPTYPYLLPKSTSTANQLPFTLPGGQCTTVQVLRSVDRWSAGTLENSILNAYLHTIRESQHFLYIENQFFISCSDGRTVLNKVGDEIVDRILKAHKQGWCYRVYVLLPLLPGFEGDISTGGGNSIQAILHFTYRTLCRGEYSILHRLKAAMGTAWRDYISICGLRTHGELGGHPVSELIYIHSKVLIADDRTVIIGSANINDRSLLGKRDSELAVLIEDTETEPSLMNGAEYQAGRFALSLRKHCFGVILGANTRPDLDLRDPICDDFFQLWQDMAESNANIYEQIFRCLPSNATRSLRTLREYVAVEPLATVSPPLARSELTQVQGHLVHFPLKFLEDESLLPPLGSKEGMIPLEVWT
# Phospholipase D1, sequence (Q13393 whole entry): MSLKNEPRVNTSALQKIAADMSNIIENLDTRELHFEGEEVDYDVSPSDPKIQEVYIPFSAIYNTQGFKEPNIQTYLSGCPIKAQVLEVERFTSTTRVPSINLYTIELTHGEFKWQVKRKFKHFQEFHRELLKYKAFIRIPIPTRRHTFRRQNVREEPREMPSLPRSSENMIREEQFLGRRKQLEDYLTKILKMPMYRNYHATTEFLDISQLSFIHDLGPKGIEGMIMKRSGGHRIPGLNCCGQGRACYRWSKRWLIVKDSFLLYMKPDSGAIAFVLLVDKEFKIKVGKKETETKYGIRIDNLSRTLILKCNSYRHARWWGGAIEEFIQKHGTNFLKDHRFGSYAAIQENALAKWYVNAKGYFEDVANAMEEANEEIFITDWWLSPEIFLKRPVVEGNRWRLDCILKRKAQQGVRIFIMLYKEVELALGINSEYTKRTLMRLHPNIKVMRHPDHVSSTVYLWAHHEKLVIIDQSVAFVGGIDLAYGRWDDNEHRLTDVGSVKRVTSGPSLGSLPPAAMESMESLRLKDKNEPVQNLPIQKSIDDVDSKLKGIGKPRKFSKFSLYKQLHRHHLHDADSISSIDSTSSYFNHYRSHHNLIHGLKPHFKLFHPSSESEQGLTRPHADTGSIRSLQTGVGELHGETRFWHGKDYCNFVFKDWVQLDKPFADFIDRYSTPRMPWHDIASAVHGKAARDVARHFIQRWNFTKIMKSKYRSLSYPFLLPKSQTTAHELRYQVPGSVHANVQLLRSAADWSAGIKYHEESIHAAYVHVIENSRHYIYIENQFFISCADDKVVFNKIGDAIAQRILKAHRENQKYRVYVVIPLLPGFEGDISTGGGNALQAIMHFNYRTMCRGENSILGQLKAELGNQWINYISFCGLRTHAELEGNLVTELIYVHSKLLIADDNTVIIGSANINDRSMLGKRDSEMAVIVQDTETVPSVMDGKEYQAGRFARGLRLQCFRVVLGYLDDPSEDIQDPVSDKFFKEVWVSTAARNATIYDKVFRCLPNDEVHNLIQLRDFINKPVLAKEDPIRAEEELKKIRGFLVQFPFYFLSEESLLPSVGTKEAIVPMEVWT
# G-protein coupled receptor 183, sequence (P32249 whole entry): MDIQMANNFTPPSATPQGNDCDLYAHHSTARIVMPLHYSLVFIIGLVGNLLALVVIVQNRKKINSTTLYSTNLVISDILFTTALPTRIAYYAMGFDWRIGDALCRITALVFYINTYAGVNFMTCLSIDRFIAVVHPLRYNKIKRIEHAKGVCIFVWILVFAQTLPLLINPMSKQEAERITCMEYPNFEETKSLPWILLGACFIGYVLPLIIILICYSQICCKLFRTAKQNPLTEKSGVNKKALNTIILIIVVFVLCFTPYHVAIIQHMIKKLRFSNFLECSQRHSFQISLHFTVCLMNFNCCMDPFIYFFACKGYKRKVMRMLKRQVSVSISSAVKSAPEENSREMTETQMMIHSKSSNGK
smiles,measurement,setting,value
COc1ccccc1Cn1c(-c2ccccc2OC)nc2ccccc21,CC50,[1],> 40 µM (active)
same,IC50,[2],> 100 µM (active)
Cc1sc(NC(=O)CSc2nnc(C)c(=O)[nH]2)c(C#N)c1C,IC50,[3],> 50 µM (not active)
O=C(NCCN1CCC2(CC1)C(=O)NCN2Cc1ccc(Cl)cc1)c1ccc2ccccc2c1,IC50,[4],6.78 µM (active)
same,IC50,[5],1.54 µM (active)
Oc1nc(-c2cccs2)nc2ccccc12,EC50,[6],> 50 µM (not active)
O=C1CN(C(=O)COC(=O)c2ccc([N+](=O)[O-])s2)c2ccccc2N1,EC50,[7],17.4 µM (inactive)
same,IC50,[8],47.9 µM (active)
same,AC50,[9],3.32 µM (active)
same,IC50,[10],96.6 µM (active)
same,IC50,[11],92 µM (active)
same,AC50,[12],19.6 µM (active)
same,AC50,[13],20 µM (active)
same,IC50,[14],52.9 µM (active)
COc1cccc(-c2ccc([C@@H]3[C@@H](CO)N4CCCCN(C(=O)Cc5ccncc5)C[C@@H]34)cc2)c1,AC50,[15],> 26 µM (inactive)
O=C(Nc1ccc(C(F)(F)F)cc1)N1C[C@@H]2N[C@H](C1)[C@@H]2c1ccc(-c2cccnc2)cc1,AC50,[16],0.0354 µM (active)
same,AC50,[17],18.6 µM (active)
same,AC50,[18],1.12 µM (active)
same,AC50,[19],0.022 µM (active)
same,AC50,[20],0.0146 µM (active)
CCOC(=O)c1c(-c2ccc(C(C)(C)C)cc2)csc1NC(=O)CN1CCN(CC)CC1,AC50,[21],9.03 µM (active)
same,AC50,[22],15.3 µM (active)
same,AC50,[23],11.9 µM (active)
O=C(C1CCC1)N1C[C@@H]2N[C@H](C1)[C@@H]2c1ccc(/C=C/c2ccccc2)cc1,AC50,[24],11.5 µM (active)
same,AC50,[18],3.76 µM (active)
Cc1cc2c(OCC(CNC(C)(C)C)OC(=O)c3ccccc3)cccc2[nH]1 (stereo unspecified) [BOPINDOLOL],IC50,[25],14.6 µM (inactive)
same,IC50,[26],> 33.3 µM (inactive)
O=C(/C=C/c1ccc(F)cc1)N1CCN(S(=O)(=O)c2ccccc2F)CC1,IC50,[27],0.0194 µM (active)
COC(=O)c1ccc(-n2c(C)cc(C(=O)CSc3ccc(N(C)C(C)=O)cc3)c2C)cc1,EC50,[28],10 µM (active)
Cc1ccc(OCCSc2nnc(-c3ccncc3)n2C)cc1,IC50,[29],> 100 µM (active)
same,IC50,[30],> 100 µM (inactive)
